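1) Cells in 96-well plates. 2) Compound, 48 h, 5 concentrations. 3) Linear interpolation between surrounding doses. 4) Unreached endpoint = highest concentration. GI50 = concentration required for 50% inhibition of growth. At the TGI there is no net growth.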
Experiments:
Assay in all cases: growth of human tumour cells (NCI), 48 h
786-0 renal = tested on: 786-0 renal
A498 renal = tested on: A498 renal
A549 NSCLC = tested on: A549 NSCLC
ACHN renal = tested on: ACHN renal
BT-549 breast = tested on: BT-549 breast
CAKI-1 renal = tested on: CAKI-1 renal
CCRF-CEM leukemia = tested on: CCRF-CEM leukemia
COLO 205 colon = tested on: COLO 205 colon
DU-145 prostate = tested on: DU-145 prostate
EKVX NSCLC = tested on: EKVX NSCLC
HCC-2998 colon = tested on: HCC-2998 colon
HCT-116 colon = tested on: HCT-116 colon
HCT-15 colon = tested on: HCT-15 colon
HL-60(TB) leukemia = tested on: HL-60(TB) leukemia
HOP-62 NSCLC = tested on: HOP-62 NSCLC
HOP-92 NSCLC = tested on: HOP-92 NSCLC
HS 578T breast = tested on: HS 578T breast
HT29 colon = tested on: HT29 colon
IGROV1 ovarian = tested on: IGROV1 ovarian
K-562 leukemia = tested on: K-562 leukemia
KM12 colon = tested on: KM12 colon
LOX IMVI melanoma = tested on: LOX IMVI melanoma
M14 melanoma = tested on: M14 melanoma
MALME-3M melanoma = tested on: MALME-3M melanoma
MCF7 breast = tested on: MCF7 breast
MDA-MB-231 breast = tested on: MDA-MB-231 breast
MDA-MB-435 = tested on: MDA-MB-435
NCI-H226 lung = tested on: NCI-H226 lung

C#Cc1nc(/C=C/C(=O)NO)cs1
GI50 (786-0 renal): 0.211 µM
TGI (786-0 renal): 0.427 µM
GI50 (A498 renal): 1.8 µM
TGI (A498 renal): 3.66 µM
GI50 (A549 NSCLC): 3.89 µM
TGI (A549 NSCLC): 22.5 µM
GI50 (ACHN renal): 2.51 µM
TGI (ACHN renal): 7.1 µM
GI50 (BT-549 breast): 2.63 µM
TGI (BT-549 breast): 6.74 µM
GI50 (CAKI-1 renal): 1.72 µM
TGI (CAKI-1 renal): 3.24 µM
GI50 (CCRF-CEM leukemia): 0.414 µM
TGI (CCRF-CEM leukemia): 1.95 µM
GI50 (COLO 205 colon): 4.17 µM
TGI (COLO 205 colon): 14.9 µM
GI50 (DU-145 prostate): 2.01 µM
TGI (DU-145 prostate): 6.16 µM
GI50 (EKVX NSCLC): 2.25 µM
TGI (EKVX NSCLC): 5.07 µM
GI50 (HCC-2998 colon): 12.7 µM
TGI (HCC-2998 colon): 26.1 µM
GI50 (HCT-116 colon): 1.56 µM
TGI (HCT-116 colon): 3.58 µM
GI50 (HCT-15 colon): 2.98 µM
TGI (HCT-15 colon): 14.9 µM
GI50 (HL-60(TB) leukemia): 1.66 µM
TGI (HL-60(TB) leukemia): 4.09 µM
GI50 (HOP-62 NSCLC): 2.76 µM
TGI (HOP-62 NSCLC): 15 µM
GI50 (HOP-92 NSCLC): 1.43 µM
TGI (HOP-92 NSCLC): 3 µM
GI50 (HS 578T breast): 2.04 µM
TGI (HS 578T breast): 7.62 µM
GI50 (HT29 colon): 2.34 µM
TGI (HT29 colon): 5.7 µM
GI50 (IGROV1 ovarian): 0.501 µM
TGI (IGROV1 ovarian): 1.92 µM
GI50 (K-562 leukemia): 3.01 µM
TGI (K-562 leukemia): 12.8 µM
GI50 (KM12 colon): 3.51 µM
TGI (KM12 colon): 14.5 µM
GI50 (LOX IMVI melanoma): 0.171 µM
TGI (LOX IMVI melanoma): 0.326 µM
GI50 (M14 melanoma): 3.15 µM
TGI (M14 melanoma): 15 µM
GI50 (MALME-3M melanoma): 1.29 µM
TGI (MALME-3M melanoma): 2.85 µM
GI50 (MCF7 breast): 3.27 µM
TGI (MCF7 breast): 19.6 µM
GI50 (MDA-MB-231 breast): 2.88 µM
TGI (MDA-MB-231 breast): 7.82 µM
GI50 (MDA-MB-435): 3.7 µM
TGI (MDA-MB-435): 15.9 µM
GI50 (NCI-H226 lung): 10.4 µM

Source: PubChem BioAssay (NCI)
